The nature of assay [1]: Inhibition of rapamycin induced autophagy in human MCF7 cells expressing eGFP-LC3. The format is functional, cell-based.
In assay [2] the target is Phosphatidylinositol 3-kinase catalytic subunit type 3 (Homo sapiens, UniProt Q8NEB9). The assay is described as follows: Inhibition of VPS34 (unknown origin).
A short description of assay [3]: Inhibition of starvation induced autophagy in human MCF7 cells expressing eGFP-LC3. The format is functional, cell-based.

Bounds are passed on as bounds.

One may read the IC50 as the concentration that gives 50% inhibition. A higher IC50 goes with lower potency.

Phosphatidylinositol 3-kinase catalytic subunit type 3, sequence (Q8NEB9 whole entry): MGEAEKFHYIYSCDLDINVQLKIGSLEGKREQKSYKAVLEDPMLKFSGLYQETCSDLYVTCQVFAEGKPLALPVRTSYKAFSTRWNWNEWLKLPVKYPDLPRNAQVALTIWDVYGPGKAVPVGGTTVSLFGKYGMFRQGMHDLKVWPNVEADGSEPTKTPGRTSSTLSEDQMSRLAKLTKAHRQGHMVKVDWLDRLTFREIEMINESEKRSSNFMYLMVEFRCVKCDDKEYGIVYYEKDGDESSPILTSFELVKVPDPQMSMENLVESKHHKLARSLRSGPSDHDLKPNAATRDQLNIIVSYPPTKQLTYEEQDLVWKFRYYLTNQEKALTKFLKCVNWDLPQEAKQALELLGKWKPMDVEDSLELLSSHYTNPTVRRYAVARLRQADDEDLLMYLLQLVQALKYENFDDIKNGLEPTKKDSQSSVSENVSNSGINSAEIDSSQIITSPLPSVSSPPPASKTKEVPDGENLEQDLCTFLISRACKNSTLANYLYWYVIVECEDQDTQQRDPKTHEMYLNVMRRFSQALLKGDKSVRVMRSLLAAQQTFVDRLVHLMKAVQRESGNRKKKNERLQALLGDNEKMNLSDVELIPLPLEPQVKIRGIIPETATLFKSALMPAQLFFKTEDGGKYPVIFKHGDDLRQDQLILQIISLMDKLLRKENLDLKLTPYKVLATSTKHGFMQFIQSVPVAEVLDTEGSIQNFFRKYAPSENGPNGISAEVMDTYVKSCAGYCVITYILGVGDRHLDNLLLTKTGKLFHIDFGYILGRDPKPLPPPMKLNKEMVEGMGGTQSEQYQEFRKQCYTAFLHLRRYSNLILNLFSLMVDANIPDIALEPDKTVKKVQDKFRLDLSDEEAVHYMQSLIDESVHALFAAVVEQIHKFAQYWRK

Consider `Cc1cc(Nc2cc(Cl)nc(Oc3ccc([N+](=O)[O-])cc3)n2)no1`, for which the values for the IC50 in assay [1], in assay [2] and in assay [3] were 120 nM, 20 nM and 170 nM, respectively. For the compound `O=[N+]([O-])c1ccc(Oc2nc(Cl)cc(Nc3cc(C4CC4)[nH]n3)n2)cc1`, the IC50 in assay [1] turned out to be 100 nM; in assay [2], 36 nM; in assay [3] it was 130 nM. With `COC[C@H]1OC(=O)c2coc3c2[C@@]1(C)C1=C(C3=O)[C@@H]2CCC(=O)[C@@]2(C)CC1`, in assay [2], the IC50 amounted to 17 nM. The same measure, in the same setting: as for `CCN/C=C1\C(=O)O[C@H](COC)[C@@]2(C)C1=C(O)C(=O)C1=C2[C@H](OC(C)=O)C[C@]2(C)C(=O)CC[C@@H]12`, the figure is ≥ 500 nM; as for `COC[C@H]1OC(=O)c2coc3c2[C@@]1(C)C1=C(C3=O)[C@@H]2C[C@@H](Br)C(OC(C)=O)[C@@]2(C)C[C@H]1OC(C)=O` (some centres undefined), 77 nM. `O=C(CC1CC1)N1CCc2ccc(S(=O)(=O)Nc3ccc(Cl)c(C(F)(F)F)c3)cc21` came in with an IC50 in assay [3] of 6600 nM.

With `COC[C@H]1OC(=O)C23CC2COC2=C3[C@@]1(C)C1=C(C2=O)[C@@H]2CCC(=O)[C@@]2(C)C[C@H]1OC(C)=O` (some centres undefined), the IC50 in assay [2] was ≥ 500 nM. Take `NS(=O)(=O)c1ccc(Oc2nc(Cl)cc(Nc3cc[nH]n3)n2)cc1`: the values for the IC50 in assay [1], in assay [2] and in assay [3] were 420 nM, 61 nM and 450 nM, respectively. `O=C(C1CC1)N1CCc2cc(Br)c(S(=O)(=O)Nc3ccc(Cl)c(C(F)(F)F)c3)cc21` had an IC50 in assay [3] of 140 nM. As for `CCCN/C=C1\C(=O)O[C@H](COC)[C@@]2(C)C1=C(O)C(=O)C1=C2[C@H](OC(C)=O)C[C@]2(C)C(=O)CC[C@@H]12`, the IC50 in assay [2] was ≥ 500 nM. In the case of `COC[C@H]1OC(=O)/C(=C\N)C2=C(O)C(=O)C3=C([C@H](OC(C)=O)C[C@]4(C)C(=O)CC[C@@H]34)[C@]21C`, in assay [2], the IC50 was ≥ 500 nM.

Regarding `Clc1cc(Nc2cc[nH]n2)nc(OCc2ccncc2)n1`, the IC50 in assay [1] was determined as 280 nM; in assay [2], 110 nM; in assay [3], 380 nM. Compound `O=C(C1CC1)N1CCc2cc(Br)c(S(=O)(=O)Nc3cc(Cl)ccc3C(F)(F)F)cc21` displayed an IC50 in assay [3] of 2400 nM.

As for `Cc1cc(Nc2cc(C(F)(F)F)nc(Oc3ccc([N+](=O)[O-])cc3)n2)n[nH]1`, the half-maximal inhibitory concentration (IC50) in assay [1] was 70 nM; in assay [2], 78 nM; in assay [3], 190 nM. In the same order, the values of `Cc1cc(Nc2cc(N(C)C)nc(Oc3ccc([N+](=O)[O-])cc3)n2)n[nH]1` are 280 nM, 285 nM and 450 nM. The compound `COC[C@H]1OC(=O)c2coc3c2[C@@]1(C)C1=C(C3=O)[C@@H]2CCC(OC(C)=O)[C@@]2(C)C[C@H]1OC(C)=O` (some centres undefined) displayed an IC50 in assay [2] of 59 nM. As to `N#Cc1ccc(Oc2nc(Cl)cc(Nc3cc[nH]n3)n2)cc1`, the IC50 in assay [1] was 90 nM; in assay [2], 49 nM; in assay [3], 130 nM. `COC[C@H]1OC(=O)c2coc3c2[C@@]1(C)C1=C(C3=O)[C@@H]2C[C@@H](O)C(OC(C)=O)[C@@]2(C)C[C@H]1OC(C)=O` (some centres undefined): in assay [2], 153 nM corresponded to half-maximal inhibition (IC50). In the case of `Cc1cc(Nc2cc(Cl)nc(Oc3ccc([N+](=O)[O-])cc3)n2)n[nH]1`, the values for the IC50 in assay [1] and in assay [3] were 40 nM and 90 nM, respectively. `COC[C@H]1OC(=O)C2=CCOC3=C2[C@@]1(C)C1=C(C3=O)[C@@H]2CCC(=O)[C@@]2(C)C[C@H]1OC(C)=O` yielded an IC50 in assay [2] of 271 nM. That is a sub-micromolar value.

In turn, `O=C(C1CCC1)N1CCc2cc(Br)c(S(=O)(=O)Nc3ccc(Cl)c(C(F)(F)F)c3)cc21` came in with an IC50 in assay [3] of 3300 nM. This lies in the single-digit micromolar range. `CCCCN/C=C1\C(=O)O[C@H](COC)[C@@]2(C)C1=C(O)C(=O)C1=C2[C@H](OC(C)=O)C[C@]2(C)C(=O)CC[C@@H]12` yielded a 50% inhibitory concentration (IC50) in assay [2] of 52 nM. Consider `Cc1cc(Nc2cc(N3CCOCC3)nc(Oc3ccc([N+](=O)[O-])cc3)n2)n[nH]1`, for which the IC50 in assay [1] was determined as 160 nM; in assay [2] it was 121 nM; in assay [3] it was 230 nM.

For the compound `CN/C=C1\C(=O)O[C@H](COC)[C@@]2(C)C1=C(O)C(=O)C1=C2[C@H](OC(C)=O)C[C@]2(C)C(=O)CC[C@@H]12`, the IC50 in assay [2] is ≥ 500 nM. Take `COC[C@H]1OC(=O)c2coc3c2[C@@]1(C)C1=C(C3=O)[C@@H]2CC[C@H](O)[C@@]2(C)C[C@H]1OC(C)=O`: the IC50 in assay [2] stood at 0.5 nM. In the case of `COC[C@H]1OC(=O)c2coc3c2[C@@]1(C)C1=C(C3=O)[C@@H]2CCC(=O)[C@@]2(C)C[C@H]1OC(C)=O` [WORTMANNIN], the IC50 in assay [2] is 4.2 nM. As for `COC(=O)c1coc2c(O)c3c(c(C)c12)C=C[C@]1(C)C(=O)CC[C@@H]31`, in assay [2], the IC50 was found to be 4600 nM.

Turning to `O=C(C1CC1)N1CCc2cc(Br)c(S(=O)(=O)Nc3cccc(C(F)(F)F)c3)cc21`, inhibition in assay [3] was half-maximal at 560 nM (IC50). On the same count and under the same terms, the figure for `O=C(C1CC1)N1CCc2cc(Br)c(S(=O)(=O)Nc3cc(C(F)(F)F)ccc3F)cc21` is 1400 nM.

`Cc1cc(Nc2cc(Cl)nc(OCc3ccc([N+](=O)[O-])cc3)n2)n[nH]1`: the IC50 in assay [1] was found to be 470 nM; in assay [2], 214 nM; in assay [3] it was 200 nM. On to `O=[N+]([O-])c1ccc(Oc2nc(Cl)cc(Nc3ccccc3)n2)cc1`, for which, in assay [3], it took 2130 nM to reach half-maximal inhibition (IC50).

Consider `COC[C@H]1OC(=O)c2coc3c2[C@@]1(C)C1=C(C3=O)[C@@H]2C[C@@H](OC(C)=O)C(OC(C)=O)[C@@]2(C)C[C@H]1OC(C)=O` (some centres undefined), for which, in assay [2], inhibition was half-maximal at 309 nM (IC50).

In the case of `O=C(C1CC1)N1CCc2cc(Br)c(S(=O)(=O)Nc3cc(C(F)(F)F)ccc3Cl)cc21`, in assay [3], the IC50 stood at 1100 nM. The compound `Cc1ccc(NS(=O)(=O)c2cc3c(cc2Br)CCN3C(=O)C2CC2)cc1C(F)(F)F` had an IC50 in assay [3] of 810 nM.

In the case of `Cc1cc(Nc2cc(N3CCN(C)CC3)nc(Oc3ccc([N+](=O)[O-])cc3)n2)n[nH]1`, the IC50 in assay [2] was found to be 146 nM; in assay [3], 390 nM. `Cc1cc(Nc2cc(C)[nH]n2)nc(Oc2ccc([N+](=O)[O-])cc2)n1`: the IC50 in assay [1] stood at 40 nM; in assay [2], 23 nM; in assay [3], 70 nM. For the compound `COC[C@H]1OC(=O)c2c(C)oc3c2[C@@]1(C)C1=C(C3=O)[C@@H]2CCC(=O)[C@@]2(C)C[C@H]1OC(C)=O`, the IC50 in assay [2] is ≥ 500 nM. Same read-out and setting: the figure for `CCN(/C=C1\C(=O)O[C@H](COC)[C@@]2(C)C1=C(O)C(=O)C1=C2[C@H](OC(C)=O)C[C@]2(C)C(=O)CC[C@@H]12)CC` is 80 nM. Turning to `CC(C)C(=O)N1CCc2cc(Br)c(S(=O)(=O)Nc3ccc(Cl)c(C(F)(F)F)c3)cc21`, the IC50 in assay [3] was 3000 nM. On the same count and under the same terms, as for `O=C(CC1CC1)N1CCc2cc(Br)c(S(=O)(=O)Nc3ccc(Cl)c(C(F)(F)F)c3)cc21`, the figure is 4500 nM. For `CC(C)(C)c1cc(Nc2cc(Cl)nc(Oc3ccc([N+](=O)[O-])cc3)n2)n[nH]1`, the IC50 in assay [1] turned out to be 2000 nM; in assay [2], 627 nM; in assay [3], 1400 nM.

On to `COC[C@H]1OC(=O)c2coc3c2[C@@]1(C)C1=CC[C@]2(C)C(=O)CC[C@H]2C1C3=O` (some centres undefined), for which half-maximal inhibition in assay [2] (IC50) was put at 54 nM. On to `Cc1cc(Nc2cc(C(F)(F)F)nc(Nc3ccc([N+](=O)[O-])cc3)n2)n[nH]1`, for which the IC50 was determined as 440 nM in assay [1], 310 nM in assay [2] and 340 nM in assay [3].

The record behind these values is ChEMBL document CHEMBL5247623, “The SAR and action mechanisms of autophagy inhibitors that eliminate drug resistance” (Eur J Med Chem, 2022).
